The data set can be described thus: method code SF-AS, from DOI: 10.1016/0223-5234(89)90056-1. Conditions: pH 7.4.

A word on the logD: it is lipophilicity at a set pH, counting ionised and neutral species. Low values mean lower lipophilicity, high ones higher lipophilicity.

`O=C(Cn1cc([N+](=O)[O-])c2cccnc21)NCCO` had a logD of -0.19. The value for `O=[N+]([O-])c1c[nH]c2nccnc12` was -0.23.

`O=[N+]([O-])c1cn(CCBr)c2ncccc12` yielded a pH-dependent lipophilicity (logD) of 1.95. `COc1nc2c(c(=O)n(C)c(=O)n2C)n1C` registered a logD of -0.09. `CCOC(=O)Cn1cccc2c([N+](=O)[O-])cnc1-2` gave a pH-dependent lipophilicity (logD) of -0.12. With `O=[N+]([O-])c1cn(CC(O)CO)c2ncccc12` (stereo not given), the pH-dependent lipophilicity (logD) was -0.28. `CCOC(=O)Cn1cc([N+](=O)[O-])c2cccnc21` registered a log distribution coefficient (logD) of 0.57. In the case of `Cn1cc([N+](=O)[O-])c2cccnc21`, the pH-dependent lipophilicity (logD) came to 0.49.

In the case of `O=C(Cn1cccc2c([N+](=O)[O-])cnc1-2)NCCCN1CCOCC1`, the logD was -0.52. To `O=C(Cn1cc([N+](=O)[O-])c2cccnc21)NCCCN1CCOCC1` belongs -0.15.

Source of the values: the SangsterLogP compilation.
